Data: patent US10028508B2, “Use of active compound compositions” (BAYER CROPSCIENCE AKTIENGESELLSCHAFT, priority 2014, dated 2018)
Like-named read-outs stand apart in the source and are kept apart here.

System: Anopheles funestus metabolic-resistant strain FUMOZ-R
Assay: Metabolic-Resistant Anopheles Test (mortality on treated tile, wood, concrete)
Assay type: in vivo
Details: for mortality at 12.5 mg/m2: Deltamethrin 12.5 mg/m2, read-out: Mortality Effect %; for mortality at 25 mg/m2: Deltamethrin 25 mg/m2, read-out: Mortality Effect %
Description: To produce a suitable preparation of active compound combination the active compounds deltamethrin and clothanidin were dissolved in acetone (for the control group only one active compound was dissolved in acetone). The active compound combination preparation (and the active compound preparations) were pipetted onto a glazed tile, wood and concrete and, after drying, adult mosquitoes of the species Anopheles funestus metabolic-resistant strain FUMOZ-R (Hunt et al., Med Vet Entomol. 2005 September; 19(3):271-5) are placed onto the treated tile, wood and concrete. The exposition time is 30 minutes.
1 hour, 2 hour, 4 hour, 24 hours after contact to the treated surface, the mortality proportion of the test animals in % is determined. Here, 100% means that all mosquitoes have been killed; 0% means that none of the mosquitoes has been killed. The treated tile, wood and concrete was stored under stress conditions (30° C./80% rh). Measurement with the treated tile, wood and concrete was repeated 5 weeks (Table 1), 11 weeks (Table 2) and 60 weeks (Table 3) after the treatment with the active compound combination.

[1] = 5 weeks after treatment, Concrete, 1 h after contact
[2] = 5 weeks after treatment, Concrete, 2 h after contact
[3] = 5 weeks after treatment, Concrete, 4 h after contact
[4] = 5 weeks after treatment, Concrete, 24 h after contact
[5] = 5 weeks after treatment, Tile, 1 h after contact
[6] = 5 weeks after treatment, Tile, 2 h after contact
[7] = 5 weeks after treatment, Tile, 4 h after contact
[8] = 5 weeks after treatment, Tile, 24 h after contact
[9] = 5 weeks after treatment, Wood, 1 h after contact
[10] = 5 weeks after treatment, Wood, 2 h after contact
[11] = 5 weeks after treatment, Wood, 4 h after contact
[12] = 5 weeks after treatment, Wood, 24 h after contact
[13] = 11 weeks after treatment, Concrete, 1 h after contact
[14] = 11 weeks after treatment, Concrete, 2 h after contact
[15] = 11 weeks after treatment, Concrete, 4 h after contact
[16] = 11 weeks after treatment, Concrete, 24 h after contact
[17] = 11 weeks after treatment, Tile, 1 h after contact
[18] = 11 weeks after treatment, Tile, 2 h after contact
[19] = 11 weeks after treatment, Tile, 4 h after contact
[20] = 11 weeks after treatment, Tile, 24 h after contact
[21] = 11 weeks after treatment, Wood, 1 h after contact
[22] = 11 weeks after treatment, Wood, 2 h after contact
[23] = 11 weeks after treatment, Wood, 4 h after contact
[24] = 11 weeks after treatment, Wood, 24 h after contact
[25] = 60 weeks after treatment, Concrete, 1 h after contact
[26] = 60 weeks after treatment, Concrete, 2 h after contact
[27] = 60 weeks after treatment, Concrete, 4 h after contact
[28] = 60 weeks after treatment, Concrete, 24 h after contact
[29] = 60 weeks after treatment, Tile, 1 h after contact
[30] = 60 weeks after treatment, Tile, 2 h after contact
[31] = 60 weeks after treatment, Tile, 4 h after contact
[32] = 60 weeks after treatment, Tile, 24 h after contact
[33] = 60 weeks after treatment, Wood, 1 h after contact
[34] = 60 weeks after treatment, Wood, 2 h after contact
[35] = 60 weeks after treatment, Wood, 4 h after contact
[36] = 60 weeks after treatment, Wood, 24 h after contact

Compound: CC1(C)[C@H](C(=O)O[C@H](C#N)c2cccc(Oc3ccccc3)c2)[C@@H]1C=C(Br)Br [Deltamethrin, deltamethrin]
- mortality at 12.5 mg/m2 [1]: 70%
- mortality at 25 mg/m2 [1]: 90%
- mortality at 12.5 mg/m2 [2]: 87%
- mortality at 25 mg/m2 [2]: 100%
- mortality at 12.5 mg/m2 [3]: 100%
- mortality at 25 mg/m2 [3]: 100%
- mortality at 12.5 mg/m2 [4]: 30%
- mortality at 25 mg/m2 [4]: 73%
- mortality at 12.5 mg/m2 [5]: 17%
- mortality at 25 mg/m2 [5]: 7%
- mortality at 12.5 mg/m2 [6]: 77%
- mortality at 25 mg/m2 [6]: 83%
- mortality at 12.5 mg/m2 [7]: 97%
- mortality at 25 mg/m2 [7]: 100%
- mortality at 12.5 mg/m2 [8]: 100%
- mortality at 25 mg/m2 [8]: 93%
- mortality at 12.5 mg/m2 [9]: 10%
- mortality at 25 mg/m2 [9]: 30%
- mortality at 12.5 mg/m2 [10]: 77%
- mortality at 25 mg/m2 [10]: 90%
- mortality at 12.5 mg/m2 [11]: 80%
- mortality at 25 mg/m2 [11]: 93%
- mortality at 12.5 mg/m2 [12]: 77%
- mortality at 25 mg/m2 [12]: 83%
- mortality at 12.5 mg/m2 [13]: 3%
- mortality at 25 mg/m2 [13]: 13%
- mortality at 12.5 mg/m2 [14]: 0%
- mortality at 25 mg/m2 [14]: 43%
- mortality at 12.5 mg/m2 [15]: 17%
- mortality at 25 mg/m2 [15]: 63%
- mortality at 12.5 mg/m2 [16]: 30%
- mortality at 25 mg/m2 [16]: 73%
- mortality at 12.5 mg/m2 [17]: 0%
- mortality at 25 mg/m2 [17]: 10%
- mortality at 12.5 mg/m2 [18]: 0%
- mortality at 25 mg/m2 [18]: 33%
- mortality at 12.5 mg/m2 [19]: 0%
- mortality at 25 mg/m2 [19]: 43%
- mortality at 12.5 mg/m2 [20]: 3%
- mortality at 25 mg/m2 [20]: 63%
- mortality at 12.5 mg/m2 [21]: 0%
- mortality at 25 mg/m2 [21]: 0%
- mortality at 12.5 mg/m2 [22]: 0%
- mortality at 25 mg/m2 [22]: 27%
- mortality at 12.5 mg/m2 [23]: 20%
- mortality at 25 mg/m2 [23]: 80%
- mortality at 12.5 mg/m2 [24]: 13%
- mortality at 25 mg/m2 [24]: 70%
- mortality at 12.5 mg/m2 [25]: 0%
- mortality at 25 mg/m2 [25]: 0%
- mortality at 12.5 mg/m2 [26]: 0%
- mortality at 25 mg/m2 [26]: 0%
- mortality at 12.5 mg/m2 [27]: 0%
- mortality at 25 mg/m2 [27]: 0%
- mortality at 12.5 mg/m2 [28]: 13%
- mortality at 25 mg/m2 [28]: 23%
- mortality at 12.5 mg/m2 [29]: 0%
- mortality at 25 mg/m2 [29]: 0%
- mortality at 12.5 mg/m2 [30]: 0%
- mortality at 25 mg/m2 [30]: 7%
- mortality at 12.5 mg/m2 [31]: 17%
- mortality at 25 mg/m2 [31]: 23%
- mortality at 12.5 mg/m2 [32]: 30%
- mortality at 25 mg/m2 [32]: 53%
- mortality at 12.5 mg/m2 [33]: 0%
- mortality at 25 mg/m2 [33]: 0%
- mortality at 12.5 mg/m2 [34]: 0%
- mortality at 25 mg/m2 [34]: 10%
- mortality at 12.5 mg/m2 [35]: 17%
- mortality at 25 mg/m2 [35]: 37%
- mortality at 12.5 mg/m2 [36]: 43%
- mortality at 25 mg/m2 [36]: 43%
